How the values were obtained:
[1] = molecular target: T1, Cyclin-G-associated kinase (Homo sapiens) (UniProt O14976); assay: Selectivity interaction (KinomeScan (DiscoverX)) EUB0000655a GAK; conditions: at 10 µM
T1 sequence (whole entry): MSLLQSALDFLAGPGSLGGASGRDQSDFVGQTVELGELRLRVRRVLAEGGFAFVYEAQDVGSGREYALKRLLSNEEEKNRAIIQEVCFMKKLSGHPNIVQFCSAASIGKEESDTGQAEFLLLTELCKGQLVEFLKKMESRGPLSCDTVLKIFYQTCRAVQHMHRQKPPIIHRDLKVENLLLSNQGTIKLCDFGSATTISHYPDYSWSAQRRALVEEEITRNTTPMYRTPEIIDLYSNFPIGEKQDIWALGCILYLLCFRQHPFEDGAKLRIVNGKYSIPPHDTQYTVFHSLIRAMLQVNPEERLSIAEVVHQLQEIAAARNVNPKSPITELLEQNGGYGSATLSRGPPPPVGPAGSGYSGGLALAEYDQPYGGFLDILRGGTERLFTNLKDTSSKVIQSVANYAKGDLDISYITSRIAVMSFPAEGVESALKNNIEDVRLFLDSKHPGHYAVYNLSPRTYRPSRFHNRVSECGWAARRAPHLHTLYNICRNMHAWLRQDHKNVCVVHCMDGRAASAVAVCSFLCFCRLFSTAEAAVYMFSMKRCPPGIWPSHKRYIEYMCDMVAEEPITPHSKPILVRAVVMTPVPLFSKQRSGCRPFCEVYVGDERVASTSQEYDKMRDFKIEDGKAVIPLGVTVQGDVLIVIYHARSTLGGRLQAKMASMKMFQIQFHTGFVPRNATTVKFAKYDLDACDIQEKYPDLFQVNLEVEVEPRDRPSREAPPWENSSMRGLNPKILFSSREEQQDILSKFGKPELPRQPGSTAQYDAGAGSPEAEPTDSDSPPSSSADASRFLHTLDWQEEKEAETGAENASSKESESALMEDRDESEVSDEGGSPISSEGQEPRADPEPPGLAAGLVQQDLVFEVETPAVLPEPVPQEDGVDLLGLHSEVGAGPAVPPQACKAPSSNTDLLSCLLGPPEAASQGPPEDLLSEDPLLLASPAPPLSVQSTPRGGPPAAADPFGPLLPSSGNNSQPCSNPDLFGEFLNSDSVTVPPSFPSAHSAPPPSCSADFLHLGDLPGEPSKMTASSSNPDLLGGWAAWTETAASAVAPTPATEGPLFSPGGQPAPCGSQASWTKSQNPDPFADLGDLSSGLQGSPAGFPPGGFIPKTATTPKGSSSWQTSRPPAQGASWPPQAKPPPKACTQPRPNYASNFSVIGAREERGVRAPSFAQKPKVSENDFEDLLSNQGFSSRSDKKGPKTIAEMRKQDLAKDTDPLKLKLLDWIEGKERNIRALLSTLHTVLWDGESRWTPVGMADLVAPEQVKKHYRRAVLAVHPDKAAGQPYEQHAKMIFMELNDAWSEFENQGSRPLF

[2] = molecular target: T2, Mitogen-activated protein kinase kinase kinase 12 (Homo sapiens) (UniProt Q12852); assay: Selectivity interaction (KinomeScan (DiscoverX)) EUB0000655a MAP3K12; conditions: at 10 µM
T2 sequence (whole entry): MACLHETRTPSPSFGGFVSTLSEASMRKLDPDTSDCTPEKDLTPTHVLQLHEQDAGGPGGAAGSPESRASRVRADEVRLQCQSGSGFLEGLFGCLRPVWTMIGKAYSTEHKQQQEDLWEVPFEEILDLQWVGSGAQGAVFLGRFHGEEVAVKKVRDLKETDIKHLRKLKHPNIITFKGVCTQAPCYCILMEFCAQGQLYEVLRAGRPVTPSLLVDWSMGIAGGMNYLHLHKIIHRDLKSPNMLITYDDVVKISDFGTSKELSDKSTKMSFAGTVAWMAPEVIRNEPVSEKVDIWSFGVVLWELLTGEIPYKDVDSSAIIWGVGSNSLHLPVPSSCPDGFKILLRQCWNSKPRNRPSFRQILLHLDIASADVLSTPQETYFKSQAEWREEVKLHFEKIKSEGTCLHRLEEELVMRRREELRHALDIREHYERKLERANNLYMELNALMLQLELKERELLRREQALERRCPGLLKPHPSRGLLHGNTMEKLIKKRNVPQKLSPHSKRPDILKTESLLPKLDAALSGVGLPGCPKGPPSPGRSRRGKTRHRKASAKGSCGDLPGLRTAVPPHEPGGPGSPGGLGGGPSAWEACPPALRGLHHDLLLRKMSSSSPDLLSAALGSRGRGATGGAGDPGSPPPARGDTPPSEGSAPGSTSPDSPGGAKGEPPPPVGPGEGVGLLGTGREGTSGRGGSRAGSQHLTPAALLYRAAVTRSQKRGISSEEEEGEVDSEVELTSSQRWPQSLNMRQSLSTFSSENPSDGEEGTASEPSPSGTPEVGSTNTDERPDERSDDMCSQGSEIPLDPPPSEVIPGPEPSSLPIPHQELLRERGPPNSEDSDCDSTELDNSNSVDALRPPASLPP

[3] = molecular target: Proto-oncogene tyrosine-protein kinase Src (Homo sapiens, UniProt P12931); assay: Selectivity interaction (Kinase panel (DSF assay)) EUB0001559a SRC
Chain of Proto-oncogene tyrosine-protein kinase Src (P12931 2-536 limits assumed): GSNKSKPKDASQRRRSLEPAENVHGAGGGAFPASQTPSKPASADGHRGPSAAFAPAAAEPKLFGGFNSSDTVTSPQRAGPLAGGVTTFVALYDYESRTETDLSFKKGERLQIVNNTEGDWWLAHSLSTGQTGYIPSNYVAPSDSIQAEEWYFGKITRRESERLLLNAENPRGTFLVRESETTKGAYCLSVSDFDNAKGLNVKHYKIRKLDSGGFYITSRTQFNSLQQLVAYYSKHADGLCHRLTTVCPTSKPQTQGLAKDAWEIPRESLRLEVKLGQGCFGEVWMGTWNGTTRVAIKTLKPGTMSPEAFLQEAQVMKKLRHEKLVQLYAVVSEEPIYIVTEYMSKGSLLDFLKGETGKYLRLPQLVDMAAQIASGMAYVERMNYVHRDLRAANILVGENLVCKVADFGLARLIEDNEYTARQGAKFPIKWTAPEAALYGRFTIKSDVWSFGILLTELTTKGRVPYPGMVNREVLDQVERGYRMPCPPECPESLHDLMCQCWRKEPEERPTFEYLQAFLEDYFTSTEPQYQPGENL

[4] = system: Mast/stem cell growth factor receptor Kit (Homo sapiens), P10721 [V560G]; assay: (§1) Selectivity interaction (Kinase panel (Z-LYTE Assay)) EUB0001632a KIT; conditions: at 10 µM
Chain of Mast/stem cell growth factor receptor Kit (Homo sapiens), P10721 [V560G] (P10721 whole entry V560G): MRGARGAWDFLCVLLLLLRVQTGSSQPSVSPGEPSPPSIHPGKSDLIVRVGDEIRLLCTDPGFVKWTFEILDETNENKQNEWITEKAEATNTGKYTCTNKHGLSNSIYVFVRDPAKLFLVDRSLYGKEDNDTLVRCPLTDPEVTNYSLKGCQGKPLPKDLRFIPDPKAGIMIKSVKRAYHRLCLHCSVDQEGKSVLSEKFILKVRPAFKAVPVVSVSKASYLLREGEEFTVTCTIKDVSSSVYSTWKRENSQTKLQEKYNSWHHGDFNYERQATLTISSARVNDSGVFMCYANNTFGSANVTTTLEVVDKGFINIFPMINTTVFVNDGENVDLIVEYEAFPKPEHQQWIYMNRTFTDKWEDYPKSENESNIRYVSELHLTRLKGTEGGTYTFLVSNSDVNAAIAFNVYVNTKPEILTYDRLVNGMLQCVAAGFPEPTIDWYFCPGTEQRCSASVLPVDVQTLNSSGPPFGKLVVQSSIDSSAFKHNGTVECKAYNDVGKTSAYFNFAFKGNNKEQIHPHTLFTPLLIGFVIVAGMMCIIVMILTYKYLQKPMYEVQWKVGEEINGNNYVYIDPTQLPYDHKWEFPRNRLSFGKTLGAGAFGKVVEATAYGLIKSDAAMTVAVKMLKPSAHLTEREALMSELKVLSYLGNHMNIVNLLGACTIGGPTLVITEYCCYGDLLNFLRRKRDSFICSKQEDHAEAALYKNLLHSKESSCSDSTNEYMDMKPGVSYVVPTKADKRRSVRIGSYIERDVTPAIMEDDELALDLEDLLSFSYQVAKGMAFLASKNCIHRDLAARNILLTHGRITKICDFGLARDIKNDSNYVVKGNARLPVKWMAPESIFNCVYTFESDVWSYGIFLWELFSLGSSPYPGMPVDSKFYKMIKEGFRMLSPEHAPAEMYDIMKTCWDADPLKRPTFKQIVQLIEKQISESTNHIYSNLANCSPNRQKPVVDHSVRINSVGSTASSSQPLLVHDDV

[5] = system: Mast/stem cell growth factor receptor Kit (Homo sapiens), P10721 [V559D]; assay: as §1; conditions: at 10 µM
[6] = system: Mast/stem cell growth factor receptor Kit (Homo sapiens), P10721 [V559D,V654A]; assay: as §1; conditions: at 10 µM
Chain of Mast/stem cell growth factor receptor Kit (Homo sapiens), P10721 [V559D,V654A] (P10721 whole entry V559D/V654A): as the sequence (P10721 whole entry V560G) above, with V559D, G560V, V654A counted along it

[7] = molecular target: Mitogen-activated protein kinase 9 (Homo sapiens, UniProt P45984); assay: Selectivity interaction (ActivX KiNativ screen (kinase selectivity in THP-1 cell lysates)) EUB0000639a MAPK9; assay type: subcellular; conditions: lysate, at 0.04 µM
Chain of Mitogen-activated protein kinase 9 (P45984 whole entry, looked up): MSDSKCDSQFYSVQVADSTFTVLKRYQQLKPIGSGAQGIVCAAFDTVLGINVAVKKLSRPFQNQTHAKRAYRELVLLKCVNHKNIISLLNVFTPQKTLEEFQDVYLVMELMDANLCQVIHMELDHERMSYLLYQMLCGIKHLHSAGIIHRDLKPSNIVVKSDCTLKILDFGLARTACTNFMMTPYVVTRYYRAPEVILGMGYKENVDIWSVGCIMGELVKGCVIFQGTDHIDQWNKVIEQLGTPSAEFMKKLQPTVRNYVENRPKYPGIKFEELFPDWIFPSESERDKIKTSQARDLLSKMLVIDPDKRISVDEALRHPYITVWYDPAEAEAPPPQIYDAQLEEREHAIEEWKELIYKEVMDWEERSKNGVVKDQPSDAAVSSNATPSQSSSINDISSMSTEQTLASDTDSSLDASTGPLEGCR

[8] = molecular target: Macrophage colony-stimulating factor 1 receptor (Homo sapiens) (UniProt P07333); assay: Selectivity interaction (SelectScreen profiling (Invitrogen)) EUB0000607a CSF1R; conditions: at 2 µM
Chain of Macrophage colony-stimulating factor 1 receptor (Homo sapiens) (P07333 whole entry): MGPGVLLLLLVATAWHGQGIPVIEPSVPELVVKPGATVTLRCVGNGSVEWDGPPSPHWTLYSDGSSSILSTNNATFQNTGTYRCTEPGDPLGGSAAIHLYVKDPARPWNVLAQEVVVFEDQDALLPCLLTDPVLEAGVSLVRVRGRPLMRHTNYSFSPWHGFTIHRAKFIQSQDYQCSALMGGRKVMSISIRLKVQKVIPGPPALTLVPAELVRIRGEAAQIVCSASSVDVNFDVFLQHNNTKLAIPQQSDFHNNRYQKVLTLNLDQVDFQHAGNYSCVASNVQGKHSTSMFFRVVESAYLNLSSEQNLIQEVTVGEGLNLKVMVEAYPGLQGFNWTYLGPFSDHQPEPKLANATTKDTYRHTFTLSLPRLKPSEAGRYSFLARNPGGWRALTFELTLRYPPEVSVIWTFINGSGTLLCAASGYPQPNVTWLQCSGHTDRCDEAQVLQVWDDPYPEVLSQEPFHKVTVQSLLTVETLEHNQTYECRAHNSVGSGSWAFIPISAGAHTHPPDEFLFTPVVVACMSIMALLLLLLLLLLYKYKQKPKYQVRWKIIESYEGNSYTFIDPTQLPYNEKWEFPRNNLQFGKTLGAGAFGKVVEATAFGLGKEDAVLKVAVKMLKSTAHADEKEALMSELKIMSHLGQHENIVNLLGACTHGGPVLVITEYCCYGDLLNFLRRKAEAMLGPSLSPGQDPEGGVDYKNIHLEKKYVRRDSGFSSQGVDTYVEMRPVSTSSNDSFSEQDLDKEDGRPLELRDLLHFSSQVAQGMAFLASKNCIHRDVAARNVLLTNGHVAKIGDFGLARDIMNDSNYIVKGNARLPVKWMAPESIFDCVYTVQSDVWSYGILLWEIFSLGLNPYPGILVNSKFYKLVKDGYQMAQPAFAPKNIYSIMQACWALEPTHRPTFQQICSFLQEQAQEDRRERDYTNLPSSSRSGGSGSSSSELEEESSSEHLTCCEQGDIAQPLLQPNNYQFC

[9] = molecular target: Mitogen-activated protein kinase kinase kinase 20 (Homo sapiens) (UniProt Q9NYL2); assay: Selectivity interaction (KinomeScan (DiscoverX)) EUB0000607a MAP3K20; conditions: at 10 µM
Chain of Mitogen-activated protein kinase kinase kinase 20 (Homo sapiens) (Q9NYL2 2-800 limits assumed): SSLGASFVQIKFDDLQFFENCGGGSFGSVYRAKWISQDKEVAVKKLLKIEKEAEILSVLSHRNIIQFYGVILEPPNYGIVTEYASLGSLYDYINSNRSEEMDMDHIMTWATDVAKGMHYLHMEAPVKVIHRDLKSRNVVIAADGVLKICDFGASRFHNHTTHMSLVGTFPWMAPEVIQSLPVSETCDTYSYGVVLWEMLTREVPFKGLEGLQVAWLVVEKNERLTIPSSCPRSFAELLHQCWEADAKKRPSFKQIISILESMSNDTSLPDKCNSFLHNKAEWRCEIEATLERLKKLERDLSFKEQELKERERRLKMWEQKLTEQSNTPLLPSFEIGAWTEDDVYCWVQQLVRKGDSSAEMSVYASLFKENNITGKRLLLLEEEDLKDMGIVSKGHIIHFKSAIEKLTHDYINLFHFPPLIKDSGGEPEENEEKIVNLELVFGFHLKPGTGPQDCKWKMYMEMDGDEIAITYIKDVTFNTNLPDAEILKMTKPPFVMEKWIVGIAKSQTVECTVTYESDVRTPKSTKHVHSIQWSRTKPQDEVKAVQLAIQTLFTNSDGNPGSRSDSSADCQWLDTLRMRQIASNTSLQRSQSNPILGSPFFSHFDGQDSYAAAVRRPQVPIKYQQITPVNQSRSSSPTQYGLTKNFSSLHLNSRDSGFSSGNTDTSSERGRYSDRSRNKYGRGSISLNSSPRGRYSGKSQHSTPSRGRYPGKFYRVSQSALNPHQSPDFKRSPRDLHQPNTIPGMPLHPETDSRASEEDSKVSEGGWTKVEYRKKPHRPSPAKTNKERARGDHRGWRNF

[10] = molecular target: Cyclin-dependent kinase 7 (Homo sapiens, UniProt P50613); assay: Selectivity interaction (KinomeScan (DiscoverX)) EUB0001049a CDK7; conditions: at 1 µM
Chain of Cyclin-dependent kinase 7 (P50613 whole entry): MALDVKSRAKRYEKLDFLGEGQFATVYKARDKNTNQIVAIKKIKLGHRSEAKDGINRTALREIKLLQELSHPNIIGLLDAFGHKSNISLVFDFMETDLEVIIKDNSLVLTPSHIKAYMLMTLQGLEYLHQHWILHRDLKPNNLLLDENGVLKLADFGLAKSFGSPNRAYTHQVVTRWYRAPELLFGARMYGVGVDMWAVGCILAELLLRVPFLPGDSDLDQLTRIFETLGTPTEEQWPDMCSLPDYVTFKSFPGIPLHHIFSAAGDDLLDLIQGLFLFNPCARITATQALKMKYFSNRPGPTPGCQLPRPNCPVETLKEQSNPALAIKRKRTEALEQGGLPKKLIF

[11] = molecular target: Serine/threonine-protein kinase 26 (Homo sapiens, UniProt Q9P289); assay: Selectivity interaction (KinomeScan (DiscoverX)) EUB0000695a STK26; conditions: at 100 nM
[12] = molecular target: Serine/threonine-protein kinase 10 (Homo sapiens) (UniProt O94804); assay: Selectivity interaction (Ambit KINOMEscan and KiNATiv profiling in Jurkat cells) EUB0000090b STK10; assay type: cell-based; conditions: at 1 µM
Chain of Serine/threonine-protein kinase 10 (Homo sapiens) (O94804 whole entry, looked up): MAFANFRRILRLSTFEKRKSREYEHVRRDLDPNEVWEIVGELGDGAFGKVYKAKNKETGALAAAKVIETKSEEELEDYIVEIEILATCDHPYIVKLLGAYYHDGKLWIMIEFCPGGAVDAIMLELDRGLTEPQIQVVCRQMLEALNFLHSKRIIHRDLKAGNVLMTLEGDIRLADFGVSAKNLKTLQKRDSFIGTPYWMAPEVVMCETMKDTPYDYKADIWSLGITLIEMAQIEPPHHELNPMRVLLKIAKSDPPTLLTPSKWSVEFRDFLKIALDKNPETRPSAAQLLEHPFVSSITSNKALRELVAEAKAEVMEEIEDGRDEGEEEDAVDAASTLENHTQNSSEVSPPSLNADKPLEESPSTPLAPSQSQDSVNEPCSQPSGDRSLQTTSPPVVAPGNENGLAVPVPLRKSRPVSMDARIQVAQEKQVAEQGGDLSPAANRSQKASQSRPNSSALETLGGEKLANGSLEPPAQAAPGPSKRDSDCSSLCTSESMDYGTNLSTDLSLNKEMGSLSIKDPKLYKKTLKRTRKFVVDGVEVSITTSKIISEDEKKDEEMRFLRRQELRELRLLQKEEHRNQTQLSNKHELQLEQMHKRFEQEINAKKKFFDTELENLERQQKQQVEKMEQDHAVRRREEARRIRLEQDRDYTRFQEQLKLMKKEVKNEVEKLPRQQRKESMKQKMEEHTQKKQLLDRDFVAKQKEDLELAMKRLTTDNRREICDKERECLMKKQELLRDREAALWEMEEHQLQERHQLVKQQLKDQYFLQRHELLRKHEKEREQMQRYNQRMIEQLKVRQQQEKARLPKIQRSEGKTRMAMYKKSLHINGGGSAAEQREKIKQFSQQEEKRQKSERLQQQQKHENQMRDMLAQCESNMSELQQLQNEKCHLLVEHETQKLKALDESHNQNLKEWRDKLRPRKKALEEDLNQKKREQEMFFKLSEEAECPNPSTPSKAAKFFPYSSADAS

[13] = molecular target: Tyrosine-protein kinase ABL2 (Homo sapiens, UniProt P42684); assay: Selectivity interaction (ActivX KiNativ screen (ex vivo kinase selectivity in human PBMCs)) EUB0001619a ABL2; assay type: cell-based; conditions: PBMC, at 1 µM

`CN(C)CCOc1ccc(-c2nc(-c3ccncc3)c(-c3ccc4c(c3)CC/C4=N\O)[nH]2)cc1` was tested, and the % of control [1] was 25% and the % of control [2] was 49%.
For `CN(C(=O)c1cnn2cccnc12)c1cc2c(cc1N1CCOCC1)C(=O)N(C[C@@H](F)C(C)(C)O)C2`, the dTM [3] was -0.3 K.
Work on `Cn1cc(-n2cnc3c(NCc4nc5cc(Cl)c(Cl)cc5[nH]4)nc(N4CCOCC4)nc32)cn1` yielded a % of control [4] of 1.94%, a % of control [5] of 6.85% and a % of control [6] of 0.874%.
`CC[C@@H]1[C@H](F)C(=O)N[C@@H]1COc1nccc2cc(C(N)=O)c(OC)cc12` [ZIMLOVISERTIB] showed a % of inhibition [7] of -18.4%.
For `CNC(=O)Nc1ccc(-c2nc(N3CC4CCC(C3)O4)c3cnn(C4CCC5(CC4)OCCO5)c3n2)cc1`, the % of inhibition [8] was 7% and the % of control [9] was 77%.
`COc1cc(Nc2nc(C)cc(-c3cnn4nc(OC)ccc34)n2)cc(C(F)(F)F)c1` was tested, and the % of control [10] was 73%.
For `Cc1cc(F)c(C(=O)Nc2cccc(-c3nncn3C(C)C)n2)cc1-n1cnc(C2CC2)c1`, the % of control [11] was 100%.
With `CN(C)C/C=C/C(=O)Nc1ccc(C(=O)N2CCCC(Nc3ncc(Cl)c(-c4c[nH]c5ccccc45)n3)C2)cc1` (stereo not drawn) the % of control [12] was 80%.
Work on `N#Cc1cccc(-c2c[nH]c3ncnc(N4CCOCC4)c23)c1` yielded a % of inhibition [13] of -1%.
